In ChEMBL document CHEMBL1212816, “Proanthocyanidins from the leaves of Machilus philippinensis” (J Nat Prod, 2010):

Experiment: Inhibition of Bacillus stearothermophilus alpha glucosidase-4
Parameters: species or system Geobacillus stearothermophilus

| Structure (SMILES) | IC50 [µM] |
| --- | --- |
| C[C@H]1O[C@H](O[C@H]2[C@H](O)[C@@H](O)[C@@H](O[C@H]3[C@H](O)[C@@H](O)C(O)O[C@@H]3CO)O[C@@H]2CO)[C@H](O)[C@@H](O)[C@@H]1N[C@H]1C=C(CO)[C@@H](O)[C@H](O)[C@H]1O (some centres undefined) [ACARBOSE] | 0.049 |
| Oc1cc(O)c2c(c1)O[C@H](c1ccc(O)c(O)c1)[C@H](O)C2 [(-)-EPICATECHIN] | > 100 |
| Oc1cc(O)c2c(c1)O[C@H](c1ccc(O)c(O)c1)[C@H](O)[C@H]2c1c(O)c2c(c3c1O[C@]1(c4ccc(O)c(O)c4)Oc4cc(O)cc(O)c4[C@H]3[C@H]1O)O[C@H](c1ccc(O)c(O)c1)[C@H](O)[C@H]2c1c(O)cc(O)c2c1O[C@H](c1ccc(O)c(O)c1)[C@H](O)C2 | > 100 |
| Oc1cc(O)c2c(c1)O[C@@]1(c3ccc(O)c(O)c3)Oc3cc(O)c4c(c3[C@@H]2[C@H]1O)O[C@H](c1ccc(O)c(O)c1)[C@H](O)[C@H]4c1c(O)cc(O)c2c1O[C@H](c1ccc(O)c(O)c1)[C@H](O)C2 [CINNAMTANNIN B1] | > 100 |
| Oc1cc(O)c2c(c1)O[C@H](c1ccc(O)c(O)c1)[C@H](O)[C@H]2c1c(O)cc2c(c1O)[C@@H]1c3c(cc(O)c4c3O[C@H](c3ccc(O)c(O)c3)[C@H](O)[C@H]4c3c(O)cc(O)c4c3O[C@H](c3ccc(O)c(O)c3)[C@H](O)C4)O[C@](c3ccc(O)c(O)c3)(O2)[C@@H]1O | 10.5 |

Results, then the molecule that gave them:

| IC50 [µM] | Structure (SMILES) |
| --- | --- |
| 3.5 | Oc1cc(O)c2c(c1)O[C@@]1(c3ccc(O)c(O)c3)Oc3cc(O)c4c(c3[C@@H]2[C@H]1O)O[C@@H](c1ccc(O)c(O)c1)[C@H](O)[C@H]4c1c(O)cc(O)c2c1O[C@H](c1ccc(O)c(O)c1)[C@H](O)C2 [AESCULTITANNIN B] |
| 92.9 | Oc1cc(O)c2c(c1)O[C@@]1(c3ccc(O)c(O)c3)Oc3cc(O)c4c(c3[C@@H]2[C@H]1O)O[C@H](c1ccc(O)c(O)c1)[C@H](O)[C@H]4c1c(O)cc(O)c2c1O[C@H](c1ccc(O)c(O)c1)[C@@H](O)C2 [CINNAMTANNIN D1] |
| 31.3 | Oc1cc(O)c2c(c1)O[C@H](c1ccc(O)c(O)c1)[C@H](O)[C@H]2c1c(O)cc(O)c2c1O[C@H](c1ccc(O)c(O)c1)[C@H](O)[C@H]2c1c(O)c2c(c3c1O[C@]1(c4ccc(O)c(O)c4)Oc4cc(O)cc(O)c4[C@H]3[C@H]1O)O[C@H](c1ccc(O)c(O)c1)[C@H](O)[C@H]2c1c(O)cc(O)c2c1O[C@H](c1ccc(O)c(O)c1)[C@H](O)C2 |
| 18.4 | Oc1cc(O)c2c(c1)O[C@H](c1ccc(O)c(O)c1)[C@H](O)[C@H]2c1c(O)cc(O)c2c1O[C@H](c1ccc(O)c(O)c1)[C@H](O)[C@H]2c1c(O)cc(O)c2c1O[C@H](c1ccc(O)c(O)c1)[C@H](O)[C@H]2c1c(O)c2c(c3c1O[C@]1(c4ccc(O)c(O)c4)Oc4cc(O)cc(O)c4[C@H]3[C@H]1O)O[C@H](c1ccc(O)c(O)c1)[C@H](O)[C@H]2c1c(O)cc(O)c2c1O[C@H](c1ccc(O)c(O)c1)[C@H](O)C2 |
